Measured values reported in patent US8110571B2, “Benzimidazole and benzothiazole derivatives, method for preparing same, use thereof as drugs, pharmaceutical compositions and novel use especially as c-MET inhibitors” (Aventis Pharma S.A., priority 2005, dated 2012).
Counter-ions that a name gives are not always drawn.

SMILES	melting point [°C]
O=C(NCCN1CCCCC1)Nc1nc2ccc(OS(=O)(=O)c3c(Cl)cccc3Cl)cc2s1 (as salt: benzenesulfonate) [Example 64, 2-{[(2-piperidin-1-ylethyl)carbamoyl]amino}-1,3-benzothiazol-6-yl 2,6-dichlorobenzenesulfonate]	172
O=C(NCCCN1CCN(Cc2c(F)cccc2Cl)CC1)Nc1nc2ccc(OS(=O)(=O)c3c(Cl)cccc3Cl)cc2s1 (as salt: benzenesulfonate) [Example 67, 2-[({3-[4-(2-chloro-6-fluorobenzyl)piperazin-1-yl]propyl}carbamoyl)amino]-1,3-benzothiazol-6-yl 2,6-dichlorobenzenesulfonate]	93
O=C(NCCCN1CCN(Cc2ccccc2)CC1)Nc1nc2ccc(OS(=O)(=O)c3c(Cl)cccc3Cl)cc2s1 (as salt: benzenesulfonate) [Example 68, 2-({[3-(4-benzylpiperazin-1-yl)propyl]carbamoyl}amino)-1,3-benzothiazol-6-yl 2,6-dichlorobenzenesulfonate]	218
O=C(NCc1cccnc1)Nc1nc2ccc(OS(=O)(=O)c3c(Cl)cccc3Cl)cc2s1 (as salt: benzenesulfonate) [Example 78, 2-{[(pyridin-3-ylmethyl)carbamoyl]amino}-1,3-benzothiazol-6-yl 2,6-dichlorobenzenesulfonate]	227
CN1CCN(CCCNC(=O)Nc2nc3ccc(OS(=O)(=O)c4c(Cl)cccc4Cl)cc3s2)CC1 (as salt: benzenesulfonate) [Example 69, 2-({[3-(4-methylpiperazin-1-yl)propyl]carbamoyl}amino)-1,3-benzothiazol-6-yl 2,6-dichlorobenzenesulfonate]	96.5
O=C(Nc1nc2ccc(OS(=O)(=O)c3c(Cl)cccc3Cl)cc2s1)N1CCC[C@@H]1CN1CCCC1 (as salt: benzenesulfonate) [Example 57, 2-({[(2R)-2-(pyrrolidin-1-ylmethyl)pyrrolidin-1-yl]carbonyl}amino)-1,3-benzothiazol-6-yl 2,6-dichlorobenzenesulfonate]	204
Nc1cc(Cl)cc(Cl)c1S(=O)(=O)Oc1ccc2nc(NC(=O)NCCN3CCOCC3)sc2c1 [Example 39, 2-{[(2-Morpholin-4-ylethyl)carbamoyl]amino}-1,3-benzothiazol-6-yl 2-amino-4,6-dichlorobenzenesulfonate]	128
O=C(Nc1nc2ccc(OS(=O)(=O)c3c(Cl)cccc3Cl)cc2s1)N1CCC[C@H]1CN1CCCC1 (as salt: benzenesulfonate) [Example 58, 2-({[(2S)-2-(pyrrolidin-1-ylmethyl)pyrrolidin-1-yl]carbonyl}amino)-1,3-benzothiazol-6-yl 2,6-dichlorobenzenesulfonate]	210
CN1CCN(CCNC(=O)Nc2nc3ccc(OS(=O)(=O)c4c(Cl)cccc4Cl)cc3s2)CC1 (as salt: benzenesulfonate) [Example 60, 2-({[2-(4-methylpiperazin-1-yl)ethyl]carbamoyl}amino)-1,3-benzothiazol-6-yl 2,6-dichlorobenzenesulfonate]	100
O=C(NCCN1CCN(Cc2ccccc2)CC1)Nc1nc2ccc(OS(=O)(=O)c3c(Cl)cccc3Cl)cc2s1 (as salt: benzenesulfonate) [Example 34, 2-({[2-(4-Benzylpiperazin-1-yl)ethyl]carbamoyl}amino)-1,3-benzothiazol-6-yl 2,6-dichlorobenzenesulfonate]	102
Cc1cccc(Cl)c1S(=O)(=O)Oc1ccc2[nH]c(NC(=O)NCCN3CCOCC3)nc2c1 [Example 11, 2-{[(2-Morpholin-4-ylethyl)carbamoyl]amino}-1H-benzimidazol-5-yl 2-chloro-6-methylbenzenesulfonate]	168
O=C(Cc1cccnc1)Nc1nc2ccc(OS(=O)(=O)c3c(Cl)cccc3Cl)cc2s1 (as salt: benzenesulfonate) [Example 45, 2-[(Pyridin-3-ylacetyl)amino]-1,3-benzothiazol-6-yl 2,6-dichlorobenzenesulfonate]	218
O=C(NCCN1CCCCCC1)Nc1nc2ccc(OS(=O)(=O)c3c(Cl)cccc3Cl)cc2s1 (as salt: benzenesulfonate) [Example 76, 2-{[(2-azepan-1-ylethyl)carbamoyl]amino}-1,3-benzothiazol-6-yl 2,6-dichlorobenzenesulfonate]	146
O=C(NCCN1CCCC1)Nc1nc2ccc(OS(=O)(=O)c3c(Cl)cccc3Cl)cc2s1 (as salt: benzenesulfonate) [Example 56, 2-{[(2-pyrrolidin-1-ylethyl)carbamoyl]amino}-1,3-benzothiazol-6-yl 2,6-dichlorobenzenesulfonate]	99
O=C(CCN1CCOCC1)Nc1nc2ccc(OS(=O)(=O)c3c(Cl)cccc3Cl)cc2s1 (as salt: benzenesulfonate) [Example 44, 2-[(3-Morpholin-4-ylpropanoyl)amino]-1,3-benzothiazol-6-yl 2,6-dichlorobenzenesulfonate]	179
O=C(NCc1ccccn1)Nc1nc2cc(OS(=O)(=O)c3c(Cl)cccc3Cl)ccc2[nH]1 (as salt: benzenesulfonate) [Example 15, 2-{[(Pyridin-2-ylmethyl)carbamoyl]amino}-1H-benzimidazol-5-yl 2,6-dichlorobenzenesulfonate]	204

SMILES	melting point [°C]
O=C(NCCCN1CCOCC1)Nc1nc2ccc(OS(=O)(=O)c3c(Cl)cccc3Cl)cc2s1 (as salt: benzenesulfonate) [Example 53, 2-{[(3-morpholin-4-ylpropyl)carbamoyl]amino}-1,3-benzothiazol-6-yl 2,6-dichlorobenzenesulfonate]	94
O=C(NCCCN1CCCC1)Nc1nc2ccc(OS(=O)(=O)c3c(Cl)cccc3Cl)cc2s1 (as salt: benzenesulfonate) [Example 59, 2-{[(3-pyrrolidin-1-ylpropyl)carbamoyl]amino}-1,3-benzothiazol-6-yl 2,6-dichlorobenzenesulfonate]	96
O=C(NCc1cccnc1)Nc1nc2cc(OS(=O)(=O)c3c(Cl)cccc3Cl)ccc2[nH]1 (as salt: benzenesulfonate) [Example 16, 2-{[(Pyridin-3-ylmethyl)carbamoyl]amino}-1H-benzimidazol-5-yl 2,6-dichlorobenzenesulfonate]	210
O=C(NCCc1cccnc1)Nc1nc2cc(OS(=O)(=O)c3c(Cl)cccc3Cl)ccc2[nH]1 (as salt: benzenesulfonate) [Example 19, 2-{[(2-Pyridin-3-ylethyl)carbamoyl]amino}-1H-benzimidazol-5-yl 2,6-dichlorobenzenesulfonate]	131
O=C(Nc1nc2ccc(OS(=O)(=O)c3c(Cl)cccc3Cl)cc2s1)NC1CCCCCC1 (as salt: benzenesulfonate) [Example 72, 2-[(cycloheptylcarbamoyl)amino]-1,3-benzothiazol-6-yl 2,6-dichlorobenzenesulfonate]	163
CN(C)c1ccc(CNC(=O)Nc2nc3ccc(OS(=O)(=O)c4c(Cl)cccc4Cl)cc3s2)cc1 (as salt: benzenesulfonate) [Example 66, 2-({[4-(dimethylamino)benzyl]carbamoyl}amino)-1,3-benzothiazol-6-yl 2,6-dichlorobenzenesulfonate]	154.5
O=C(CCc1cccnc1)Nc1nc2cc(OS(=O)(=O)c3c(Cl)cccc3Cl)ccc2[nH]1 (as salt: benzenesulfonate) [Example 25, 2-[(3-Pyridin-3-ylpropanoyl)amino]-1H-benzimidazol-5-yl 2,6-dichlorobenzenesulfonate]	188
O=C(NCCN1CCOCC1)Nc1nc2cc(OS(=O)(=O)c3c(Cl)cccc3Cl)ccc2[nH]1 (as salt: benzenesulfonate) [Example 5, 2-{[(2-Morpholin-4-ylethyl)carbamoyl]amino}-1H-benzimidazol-5-yl 2,6-dichlorobenzenesulfonate]	149
O=C(NCc1ccncc1)Nc1nc2cc(OS(=O)(=O)c3c(Cl)cccc3Cl)ccc2[nH]1 (as salt: benzenesulfonate) [Example 17, 2-{[(Pyridin-4-ylmethyl)carbamoyl]amino}-1H-benzimidazol-5-yl 2,6-dichlorobenzenesulfonate]	165 to 170
COCCNC(=O)Nc1nc2cc(OS(=O)(=O)c3c(Cl)cccc3Cl)ccc2[nH]1 (as salt: benzenesulfonate) [Example 1, 2-{[(2-methoxyethyl)carbamoyl]amino}-1H-benzimidazol-5-yl 2,6-dichlorobenzenesulfonate]	171
CC(C)NC(=O)Nc1nc2ccc(OS(=O)(=O)c3c(Cl)cccc3Cl)cc2s1 (as salt: benzenesulfonate) [Example 74, 2-[(isopropylcarbamoyl)amino]-1,3-benzothiazol-6-yl 2,6-dichlorobenzenesulfonate]	169
O=C(NCCC1CCNCC1)Nc1nc2ccc(OS(=O)(=O)c3c(Cl)cccc3Cl)cc2s1 (as salt: trifluoroacetic acid salt) [Example 35, 2-{[(2-Piperidin-4-ylethyl)carbamoyl]amino}-1,3-benzothiazol-6-yl 2,6-dichlorobenzenesulfonate]	240
CN1CCCC1CCNC(=O)Nc1nc2ccc(OS(=O)(=O)c3c(Cl)cccc3Cl)cc2s1 (stereo not shown) (as salt: benzenesulfonate) [Example 61, 2-({[2-(1-methylpyrrolidin-2-yl)ethyl]carbamoyl}amino)-1,3-benzothiazol-6-yl 2,6-dichlorobenzenesulfonate]	178
O=C(CCC1CCNCC1)Nc1nc2ccc(OS(=O)(=O)c3c(Cl)cccc3Cl)cc2s1 (as salt: benzenesulfonate) [Example 47, 2-[(3-Piperidin-4-ylpropanoyl)amino]-1,3-benzothiazol-6-yl 2,6-dichlorobenzenesulfonate]	134
O=C(Nc1nc2ccc(OS(=O)(=O)c3c(F)cccc3F)cc2s1)C1CC1 (as salt: benzenesulfonate) [Example 41, 2-[(Cyclopropylcarbonyl)amino]-1,3-benzothiazol-6-yl 2,6-difluorobenzenesulfonate]	145
